“Also recorded” adds a separate entry of the source.

In one series the test system is MEIS1. In words: Test 3: inhibition of mRNA transcription, MEIS1 in MV4;11 cells. It counts as cell-based. Conditions: for mRNA at 1 μM (% control) MEIS1: MV4;11 cells, 20 to 24 hours, relative to GAPDH; for mRNA transcription inhibition activity: statement in words, MEIS1 and HOXA9, MV4;11 cells. The source says:
(§1) MV4; 11 cells were obtained from American Type Culture Collection (ATCC). […] The expression level of each obtained gene (MEIS1 and HOXA9) was fitted with the expression level of mRNA of GAPDH.

Series [1] deals with Menin-MLL binding (His-Menin1-615 / MLL1-172-FLAG) (Homo sapiens (Human), UniProt O00255). As to the kind of experiment: Test 1: inhibition of the Menin-MLL binding (HTRF). Conditions: for IC50: Menin-MLL binding inhibition; for Menin-MLL binding inhibition activity: statement in words on the table of Test 1. How it is done: After the incubation, the signal was detected with RUBYstar (BMG LABTECH).
Sequence of Menin-MLL binding (His-Menin1-615 / MLL1-172-FLAG) (O00255 other isoform, or with tags, fused parts or gaps): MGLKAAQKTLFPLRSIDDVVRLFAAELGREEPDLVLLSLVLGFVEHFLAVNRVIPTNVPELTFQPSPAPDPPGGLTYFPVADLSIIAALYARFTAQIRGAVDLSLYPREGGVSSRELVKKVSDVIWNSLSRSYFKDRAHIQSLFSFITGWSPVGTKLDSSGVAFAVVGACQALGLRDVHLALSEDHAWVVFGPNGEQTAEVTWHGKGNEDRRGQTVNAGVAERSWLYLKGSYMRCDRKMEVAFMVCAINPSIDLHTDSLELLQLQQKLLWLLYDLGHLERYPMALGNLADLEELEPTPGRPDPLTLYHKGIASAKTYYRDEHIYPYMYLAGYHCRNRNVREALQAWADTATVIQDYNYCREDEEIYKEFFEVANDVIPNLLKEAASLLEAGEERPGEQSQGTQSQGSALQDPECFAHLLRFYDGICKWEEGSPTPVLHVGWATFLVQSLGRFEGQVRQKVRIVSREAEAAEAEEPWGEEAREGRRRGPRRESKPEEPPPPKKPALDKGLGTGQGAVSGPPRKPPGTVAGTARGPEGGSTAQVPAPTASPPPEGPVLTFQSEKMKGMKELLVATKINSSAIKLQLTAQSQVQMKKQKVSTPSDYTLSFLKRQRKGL

Another series has as its system HOXA9. As to the kind of experiment: Test 3: inhibition of mRNA transcription, HOXA9 in MV4;11 cells. Conditions: 20 to 24 hours, relative to GAPDH. The class given is cell-based.
Source text: as §1

Series [2] addresses hERG (human Ether-a-go-go Related Gene) (Homo sapiens (Human), UniProt Q12809). In words: Test 4: hERG inhibition (QPatch HT, CHO cells stably expressing hERG). The following applies: for hERG/RS4; 11: hERG IC50 divided by RS4;11 proliferation IC50.
Another series concerns RS4; 11 cells. In words: Test 2: inhibition of cell proliferation, RS4;11. It counts as cell-based. The following applies: for IC50: Homo sapiens, RS4;11 cells, 7 days, PrestoBlue cell viability; for cell proliferation inhibition activity: statement in words, RS4;11 and MOLM-13 cells. How it is done:
(§2) RS4; 11 cells were obtained from American Type Culture Collection (ATCC). […] MOLM-13 cells were separately obtained from DSMZ (Deutsche Sammlung von Mikroorganismen und Zellkulturen GmbH).
(§3) The cells were plated to a 96-well plate in 2000 cells/well, each test compound was added thereto to adjust the final concentration of DMSO to 0.1% of DMSO, and the cells were cultured for 7 days. After the cultivation, the cell viability was calculated with PrestoBlue™ Cell Viability Reagent (Invitrogen, A13261).

Another series deals with MOLM-13 cells. As to the kind of experiment: Test 2: inhibition of cell proliferation, MOLM-13. The following applies: Homo sapiens, 7 days, PrestoBlue cell viability. It counts as cell-based. Here is the method: as §2, §3

Sequence of hERG (human Ether-a-go-go Related Gene) (Q12809 whole entry): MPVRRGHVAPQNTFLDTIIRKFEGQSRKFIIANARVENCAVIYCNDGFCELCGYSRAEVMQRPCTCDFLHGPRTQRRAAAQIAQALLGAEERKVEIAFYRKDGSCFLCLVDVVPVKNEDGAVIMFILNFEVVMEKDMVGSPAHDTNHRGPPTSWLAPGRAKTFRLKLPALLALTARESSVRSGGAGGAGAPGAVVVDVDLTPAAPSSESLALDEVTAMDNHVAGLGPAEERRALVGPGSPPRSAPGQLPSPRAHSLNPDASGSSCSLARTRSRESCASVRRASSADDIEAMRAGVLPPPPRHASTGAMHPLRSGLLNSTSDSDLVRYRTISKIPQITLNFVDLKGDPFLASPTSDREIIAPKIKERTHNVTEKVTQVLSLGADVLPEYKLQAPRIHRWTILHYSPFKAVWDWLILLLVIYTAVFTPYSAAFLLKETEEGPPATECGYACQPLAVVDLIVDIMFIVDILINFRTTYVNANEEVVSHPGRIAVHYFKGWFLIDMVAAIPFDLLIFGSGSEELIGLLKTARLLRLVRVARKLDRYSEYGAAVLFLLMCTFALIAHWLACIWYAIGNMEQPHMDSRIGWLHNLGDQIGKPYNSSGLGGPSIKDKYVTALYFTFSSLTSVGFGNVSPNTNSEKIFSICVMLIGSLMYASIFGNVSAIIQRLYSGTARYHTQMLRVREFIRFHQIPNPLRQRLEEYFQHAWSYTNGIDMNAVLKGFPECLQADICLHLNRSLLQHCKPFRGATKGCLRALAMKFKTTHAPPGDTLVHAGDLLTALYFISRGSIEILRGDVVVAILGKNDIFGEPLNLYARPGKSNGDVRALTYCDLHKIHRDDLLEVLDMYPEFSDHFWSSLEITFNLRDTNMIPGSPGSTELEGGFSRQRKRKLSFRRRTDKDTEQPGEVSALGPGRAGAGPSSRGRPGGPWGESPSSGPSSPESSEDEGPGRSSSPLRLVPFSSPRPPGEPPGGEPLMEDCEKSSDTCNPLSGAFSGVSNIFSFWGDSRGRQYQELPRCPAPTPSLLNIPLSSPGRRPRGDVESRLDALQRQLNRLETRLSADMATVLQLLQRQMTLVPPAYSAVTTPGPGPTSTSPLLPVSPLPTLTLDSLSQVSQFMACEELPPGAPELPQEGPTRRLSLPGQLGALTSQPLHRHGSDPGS

Take `CC(C)N(C(=O)c1cc(F)ccc1Oc1cncnc1N1CC2(CCN(C(=O)[C@H]3N[C@H]4CC[C@@H]3C[C@@H]4CC3CC3)CC2)C1)C(C)C` [Example 1, 2-[(4-{7-[(1S,3S,4R,6S)-6-(Cyclopropylmethyl)-2-azabicyclo[2.2.2]octane-3-carbonyl]-2,7-diazaspiro[3.5]nonan-2-yl}pyrimidin-5-yl)oxy]-5-fluoro-N,N-di(propan-2-yl)benzamide]: in the series with MEIS1, the “mRNA at 1 μM (% control) MEIS1” value is given as 11.8 % control and the “mRNA transcription inhibition activity” value is on record as “showed the mRNA transcription inhibition activity”. In series [1], the IC50 was 5.3 nM and the “Menin-MLL binding inhibition activity” value is “potent”. Further, the “mRNA at 1 μM (% control) HOXA9” value in the series with HOXA9 turned out to be 40.2 % control. Also, in series [2], half-maximal inhibition (IC50) required 4000 nM; the “gap between RS4; 11 proliferation IC50 and hERG current IC50” value (from here on “gap between RS4”) is “more than 100 fold”; the “hERG/RS4; 11” value was over 400. Further, in the series with RS4; 11 cells, the IC50 was under 10 nM and the “cell proliferation inhibition activity” value is “potent”. Besides, in the series on MOLM-13 cells, inhibition was half-maximal at 20 nM (IC50).
For `CC(C)N(C(=O)c1cc(F)ccc1Oc1cncnc1N1CC2(CN(C(=O)[C@H]3N[C@H]4CC[C@@H]3[C@@H](F)C4)C2)C1)C(C)C` [Example 10, 5-fluoro-2-[(4-{6-[(1S,3S,4S,5S)-5-fluoro-2-azabicyclo[2.2.2]octane-3-carbonyl]-2,6-diazaspiro[3.3]heptan-2-yl}pyrimidin-5-yl)oxy]-N,N-di(propan-2-yl)benzamide], in the series with MEIS1, the “mRNA at 1 μM (% control) MEIS1” value came out at 13.3 % control and the “mRNA transcription inhibition activity” value is recorded as “showed the mRNA transcription inhibition activity”. Also, in series [1], the half-maximal inhibitory concentration (IC50) is under 3 nM and the “Menin-MLL binding inhibition activity” value is “particularly potent”. In the series with HOXA9, the “mRNA at 1 μM (% control) HOXA9” value worked out at 37.4 % control. Further, in series [2], the 50% inhibitory concentration (IC50) is over 10000 nM; the “gap between RS4” value is listed as “more than 100 fold”; the “hERG/RS4; 11” value was over 500. Moreover, in the series on RS4; 11 cells, the IC50 was found to be 20 nM and the “cell proliferation inhibition activity” value is on record as “potent”. Moreover, the half-inhibitory concentration (IC50) in the series with MOLM-13 cells was determined as 30 nM.
As to `CC(C)N(C(=O)c1cc(F)ccc1Oc1cncnc1N1CC2(CCN(C(=O)[C@H]3N[C@H]4CC[C@@H]3C[C@H]4CC3CC3)CC2)C1)C(C)C` [Example 4, 2-[(4-{7-[(1S,3S,4R,6R)-6-(cyclopropylmethyl)-2-azabicyclo[2.2.2]octane-3-carbonyl]-2,7-diazaspiro[3.5]nonan-2-yl}pyrimidin-5-yl)oxy]-5-fluoro-N,N-di(propan-2-yl)benzamide], in the series on MEIS1, the “mRNA at 1 μM (% control) MEIS1” value came to 18.0 % control and the “mRNA transcription inhibition activity” value is recorded as “showed the mRNA transcription inhibition activity”. In series [1], the 50% inhibitory concentration (IC50) was determined as 7.1 nM and the “Menin-MLL binding inhibition activity” value was “potent”. Moreover, the “mRNA at 1 μM (% control) HOXA9” value in the series on HOXA9 is 43.7 % control. Besides, in series [2], the IC50 turned out to be 5800 nM; the “gap between RS4” value is given as “more than 100 fold”; the “hERG/RS4; 11” value is 145. In addition, in the series with RS4; 11 cells, the IC50 turned out to be 40 nM and the “cell proliferation inhibition activity” value is “potent”. The same molecule registered a half-maximal inhibitory concentration (IC50) in the series with MOLM-13 cells of 70 nM.
Turning to `CC(C)N(C(=O)c1cc(F)ccc1Oc1cncnc1N1CC2(CN(C(=O)[C@H]3N[C@H]4CC[C@@H]3C[C@H]4CC3CC3)C2)C1)C(C)C` [Example 5, 2-[(4-{6-[(1S,3S,4R,6R)-6-(cyclopropylmethyl)-2-azabicyclo[2.2.2]octane-3-carbonyl]-2,6-diazaspiro[3.3]heptan-2-yl}pyrimidin-5-yl)oxy]-5-fluoro-N,N-di(propan-2-yl)benzamide], in the series on MEIS1, the “mRNA at 1 μM (% control) MEIS1” value amounted to 15.5 % control and the “mRNA transcription inhibition activity” value was “showed the mRNA transcription inhibition activity”. Besides, in series [1], the IC50 is 4.1 nM and the “Menin-MLL binding inhibition activity” value is “potent”. Further, the “mRNA at 1 μM (% control) HOXA9” value in the series with HOXA9 is on record as 42.6 % control. In series [2], inhibition was half-maximal at 7900 nM (IC50); the “gap between RS4” value was “more than 100 fold”; the “hERG/RS4; 11” value turned out to be 395. Moreover, in the series with RS4; 11 cells, it took 20 nM to reach half-maximal inhibition (IC50) and the “cell proliferation inhibition activity” value is “potent; also recorded: excellent”. The same molecule gave a concentration for half-maximal inhibition (IC50) in the series with MOLM-13 cells of 30 nM.
